Consider 3 molecules from PMC7894426, “Influence of verapamil on the pharmacokinetics of rotundic acid in rats and its potential mechanism” (Pharmaceutical Biology, 2021).

Where two headings read alike, the source gives them in different places.

Data set [1] can be described thus: Bidirectional transport across MDCKII-Mock cell monolayers. The class given is in vitro ADME, canine. The conditions noted are these: dog, MDCK, MDCKII-Mock, 20 min; for efflux ratio at 20 min: read-out: RE (efflux ratio). How it is done:
(§1) The qualified monolayers were used for transport studies. […] Each experiment was carried out in triplicate.

The subject of data set [2] is P-gp. Description: Bidirectional transport across Caco-2 cell monolayer. The class given is in vitro ADME, human. To be noted: human, Caco-2, rhodamine-123 10 µM. How it is done: as §1
A general note: Passage across Caco-2 layers is used to estimate intestinal permeability.

The target in data set [3] is P-gp (Homo sapiens, UniProt P08183). Description: Bidirectional transport across MDCKII-MDR1 cell monolayers (P-gp substrate assessment).
Sequence of P-gp (Homo sapiens, UniProt P08183) (P08183 whole entry): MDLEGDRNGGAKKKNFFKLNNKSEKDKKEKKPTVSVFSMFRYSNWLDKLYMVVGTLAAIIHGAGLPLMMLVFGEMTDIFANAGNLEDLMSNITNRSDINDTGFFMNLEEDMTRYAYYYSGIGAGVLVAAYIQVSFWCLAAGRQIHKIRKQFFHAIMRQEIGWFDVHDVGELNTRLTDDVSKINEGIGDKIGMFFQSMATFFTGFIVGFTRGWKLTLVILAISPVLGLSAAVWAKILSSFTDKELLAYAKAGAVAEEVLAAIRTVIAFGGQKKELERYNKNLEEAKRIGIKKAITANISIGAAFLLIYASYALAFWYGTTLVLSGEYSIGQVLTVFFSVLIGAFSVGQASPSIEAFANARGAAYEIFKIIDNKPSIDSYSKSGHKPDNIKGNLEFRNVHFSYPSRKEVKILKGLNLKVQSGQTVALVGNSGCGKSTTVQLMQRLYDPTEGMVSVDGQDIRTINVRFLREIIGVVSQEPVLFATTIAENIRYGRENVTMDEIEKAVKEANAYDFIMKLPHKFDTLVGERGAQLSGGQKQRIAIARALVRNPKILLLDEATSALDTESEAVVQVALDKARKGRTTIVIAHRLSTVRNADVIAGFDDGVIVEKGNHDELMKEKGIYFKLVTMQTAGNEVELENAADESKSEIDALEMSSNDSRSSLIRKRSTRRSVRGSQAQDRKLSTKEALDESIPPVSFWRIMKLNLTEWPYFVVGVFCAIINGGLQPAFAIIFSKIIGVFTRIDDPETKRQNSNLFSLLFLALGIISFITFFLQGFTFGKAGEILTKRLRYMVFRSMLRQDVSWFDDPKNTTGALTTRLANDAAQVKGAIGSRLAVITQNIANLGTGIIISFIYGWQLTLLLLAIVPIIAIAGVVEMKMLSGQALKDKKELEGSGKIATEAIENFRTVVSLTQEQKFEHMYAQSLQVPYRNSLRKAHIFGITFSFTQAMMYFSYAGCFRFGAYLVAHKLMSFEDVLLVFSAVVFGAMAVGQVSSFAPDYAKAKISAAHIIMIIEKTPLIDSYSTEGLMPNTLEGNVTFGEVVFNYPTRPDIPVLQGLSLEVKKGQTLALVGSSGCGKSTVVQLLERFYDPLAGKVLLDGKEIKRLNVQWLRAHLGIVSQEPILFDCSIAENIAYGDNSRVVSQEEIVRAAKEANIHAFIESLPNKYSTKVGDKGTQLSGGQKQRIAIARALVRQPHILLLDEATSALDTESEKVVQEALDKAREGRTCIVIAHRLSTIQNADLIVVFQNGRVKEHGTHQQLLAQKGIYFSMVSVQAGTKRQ
Method: MDCKII-Mock and MDCKII-MDR1 cells were given as a gift by Fuji Biomedix Co., Ltd. (Japan) and cultured in DMEM supplemented with 10% FBS and 1% antibiotic (10,000 U/mL penicillin and 10 mg/mL streptomycin). Caco-2 cell line, the human epithelial cell used in this assay, was purchased from the Cell Bank of the Chinese Academy of Sciences (Shanghai, China) and maintained between 30 and 45 passages. It was cultured according to the previous report (Guo et al. [2018]; Xiang et al. [2020]). Briefly, the Caco-2 cells were cultured in DMEM supplemented with 10% FBS, 1% NEAA, and 1% antibiotic (10,000 U/mL penicillin and 10 mg/mL streptomycin). All cells were maintained in a 5% CO2 atmosphere and 90% relative humidity at 37 °C.
For transport studies, the MDCKII-Mock, MDCKII-MDR1, and Caco-2 cells were seeded at a density of 2 × 10^5 cells/mL on Costar Transwell inserts (1.12 cm^2 surface, polycarbonate, 12 mm diameter, 0.4 µm pore size). MDCKII-Mock and MDCKII-MDR1 cells were cultured for 5–7 days in medium, for the first four days, the medium was replaced freshly every two days, and then daily. The Caco-2 cells were cultured for 19–21 days in the medium. For the first 2 weeks, the medium was replaced freshly every two days, and then daily. […] The transepithelial electrical resistance (TEER) of the monolayer cells was measured by Millcell ERS-2 (Millipore, USA), and only the monolayer with TEER exceeding 150 Ω·m^2 (MDCKII-Mock and MDCKII-MDR1 cells) and 400 Ω·m^2 (Caco-2 cells) were used for the transport experiment. The membrane integrity and transport function of MDCKII-Mock, MDCKII-MDR1, and Caco-2 cell monolayers were further verified with Lucifer yellow and Rhodamine-123. The qualified monolayers were used for transport studies.
Before the transport studies, the media in both chambers of the transwell were replaced by warm (37 °C) Hank’s balanced salt solution (HBSS), and then the MDCKII-Mock, MDCKII-MDR1, and Caco-2 cell monolayers were incubated at 37 °C and 5% CO2 for 20 min. […] Our transport studies included absorptive direction transport from the apical (AP) side to the basolateral (BL) side and secretory direction transport from the BL side to the AP side. […] After administration, the transwell plate was placed in a thermostatic oscillator shaking at 60 rpm and 37 °C. At 10, 20, 40 and 60 min, respectively, 50 µL incubating sample aliquot was collected from the receiver chamber and immediately replaced by the same volume of fresh HBSS (37 °C). In addition, the membrane integrity of MDCKII-Mock, MDCKII-MDR1, and Caco-2 cell monolayers were evaluated with Lucifer yellow (30 µM) and TEER value, and the efflux activity of P-gp was validated using a typical P-gp substrate rhodamine-123 (10 µM).
The parameters Papp, RE, and NRE were calculated using the following equation: Papp=(ΔQ/Δt)×[1/(A×C0)]
The conditions of data set [4]: rats; ref Wang et al. [1994]; cited from earlier work.
Data set [5] has as its system MDCKII-Mock cell monolayers. The data set can be described thus: Bidirectional transport across MDCKII-Mock cell monolayers. The conditions noted are these: MDCKII-Mock monolayer integrity check, Lucifer yellow 30 µM. Type of data set: in vitro ADME, canine. How it is done: as §1
Data set [6] concerns Caco-2 cell monolayer. The data set can be described thus: Bidirectional transport across Caco-2 cell monolayer. Type of data set: in vitro ADME, human. The conditions noted are these: Caco-2 monolayer integrity check, Lucifer yellow 30 µM. How it is done:
as §1

The mark [7] stands for this setting: pH 7.4, with verapamil 50 µM, + 50 µM verapamil.

On to `COC(=O)c1ccccc1-c1c2ccc(=N)cc-2oc2cc(N)ccc12` [Rhodamine 123, rhodamine-123], for which the Papp A→B – broadly, how fast a substance crosses the layer from the apical side – at 20 min in data set [1] (setting [7]) was 0.409 ± 0.0686 ×10⁻⁶ cm/s; in data set [1] (pH 7.4, without verapamil) it was 0.378 ± 0.0314 ×10⁻⁶ cm/s; in data set [3] (dog, MDCK-MDR1, pH 7.4), 0.193 ± 0.0535 ×10⁻⁶ cm/s. Further, the Papp B→A (as a rule, how fast a substance crosses the layer from the basolateral side) at 20 min in data set [1] (setting [7]) was found to be 0.538 ± 0.0642 ×10⁻⁶ cm/s; in data set [1] (pH 7.4, without verapamil), 0.481 ± 0.0998 ×10⁻⁶ cm/s; in data set [3] (dog, MDCK-MDR1, pH 7.4) it was 1.78 ± 0.293 ×10⁻⁶ cm/s. The efflux ratio at 20 min was found to be 1.32 in data set [1] (setting [7]); 1.27 in data set [1] (pH 7.4, without verapamil); 9.2 in data set [3] (dog, MDCK-MDR1, pH 7.4). For the same molecule, the efflux ratio at 10 µM in data set [2] (pH 7.4, with verapamil 50 µM, verapamil present (50 µM)) turned out to be 4.86; in data set [2] (pH 7.4, without verapamil) it was 15.6.
Regarding `CC1(C)[C@@H](O[C@H]2O[C@H](C(=O)O)[C@@H](O)[C@H](O)[C@H]2O[C@@H]2O[C@H](C(=O)O)[C@@H](O)[C@H](O)[C@H]2O)CC[C@]2(C)[C@H]3C(=O)C=C4[C@@H]5C[C@@](C)(C(=O)O)CC[C@]5(C)CC[C@@]4(C)[C@]3(C)CC[C@@H]12` [glycyrrhizin], the bioavailability (in general, dose-corrected exposure relative to a reference, in per cent) in data set [4] was 4.0%.
Lucifer yellow: the “Papp(AP→BL)” value in data set [5] is 0.463 ± 0.0568 × 10^−6 cm/s; in data set [6], 0.268 ± 0.0346 × 10^−6 cm/s; in data set [3] (MDCKII-MDR1 monolayer integrity check, Lucifer yellow 30 µM), 0.432 ± 0.0468 × 10^−6 cm/s.
